In patent publication US6204266A, “Pharmaceutical, cosmetic and/or food composition having anti-oxidant properties” (Universite Catholique De Louvain Halles Universitaires, priority 1995, dated 2001):

How the values were obtained:
[1] = tested on: Cu-Zn superoxide dismutase; experiment: Competition of imidazolopyrazine and superoxide dismutase for superoxide anion (xanthine oxidase/hypoxanthine), luminescence; assay type: biochemical; conditions: for change of slope of the relationship linking IO/I to the superoxide dismutase concentration: when the concentration of the luminescent compound is increased
Excerpt: This method is based on the capacity of imidazolopyrazines to react with the superoxide anion, emitting light.
In these experiments, a constant level of superoxide anion is generated by an enzymatic method, by reacting xanthine oxidase with hypoxanthine in the presence of oxygen.
The maximum light intensity, measured by a luminometer during the competition reaction, is linked to the ratio in [sic] imidazolopyrazine and superoxide dismutase concentrations, as well as to that of the respective rate constants.
Consequently, knowing the rate constant of the reaction of the competing antioxidant with the superoxide anion (K3), the rate constant of the reaction of the imidazolopyrazine with the superoxide anion (K2) may be calculated:
By carrying out this experiment at two imidazolopyrazine concentrations, it is possible to eliminate K1 [O2^2- ] corresponding to the spontaneous disproportionation reaction of O2^2-. The slopes A and B of the straight lines linking IO /I [sic] to the superoxide dismutase concentration are: [formula]
K2 =K3 /([IMPZ]1 -[IMPZ]2)/(1/A)-1/B)
When the imidazolopyrazine concentration is increased, the slope of the relationship linking IO /I [sic] to the superoxide dismutase concentration should decrease.

[2] = In vitro toxicity on other mammalian cell types (FIG. 11); assay type: cell-based; conditions: pig (EAP) endothelial cells, read-out: concentration at which a toxic effect can possibly be observed
Method: Similar in vitro toxicity tests were performed on other mammalian (porcine, human, etc.) cell types.
FIG. 11 depicts the percentage survival of different cell types (fibroblasts, human (ECV) or pig (EAP) endothelial cells) as a function of increasing doses of CLZ-9 (molar). A toxic effect of the products can possibly be observed on a certain cell type at high concentrations (10^-4 M in pigs).

Human fibroblasts = experiment: Protection of human fibroblasts against oxidative stress inducer tert-butyl hydroperoxide (t-BHP); assay type: cell-based
Method: Human fibroblasts were subjected to an oxidative stress inducer (tert-butyl hydroperoxide (t-BHP)) for 6 to 12 hours in the absence and in the presence of increasing doses of coelenterazine and its derivatives.
In the same experimental series, the efficacy of vitamin E (α-tocopherol) (Troxol®), a major antioxidant of animal cells, was compared.

human fibroblasts (MRC5) = experiment: In vitro toxicity on human fibroblasts (MRC5), total protein content; assay type: cell-based; conditions: concentration of 0.1 mM (10^-4 M), 1% ethanol
Method: Each of the imidazolopyrazine derivatives tested was applied to human fibroblasts (MRC5) in culture. The doses of the compounds ranged from 10^-8 to 10^-4 M. These compounds were applied 48 hours after the cells were inoculated into wells (volume=150 μl; 3000 cells per well).
After a further 24 hour period, the culture medium is renewed, the cells are incubated for 72 hours and their level of survival and of growth is evaluated by measuring the total protein contents in each well (Biorad).

In vivo toxicity in mice = conditions: mouse, in vivo, ip, 0.02 mg/kg
mice [3] = experiment: In vivo toxicity in mice; conditions: 20 μg/kg, 5 intraperitoneal injections
mice [4] = conditions: mouse, in vivo
[5] = Stability in aqueous medium (buffers pH 4, 7, 10; assayed by luminescence in DMSO); assay type: physicochemical; conditions: irrespective of the pH
Method: FIG. 7 depicts the stability of the derivative 10 in an aqueous medium. Three 10^-5 M solutions of CLZN-10 were prepared in citrate (pH 4), phosphate (pH 7) and glycine (pH 10) buffers. Aliquots of these solutions were sampled regularly and the CLZN-10 assayed by luminescence in DMSO.
In comparison with coelenterazine, derivatives comprising additional phenyl groups display better stability.

[6] = t-BHP-treated human fibroblasts

SMILES: Cc1nc2c(Cc3ccccc3)[nH]c(-c3ccc(O)cc3)cn-2c1=O [CLZN-9, 3,7-dihydro-2-methyl-6-(p-hydroxyphenyl)-8-benzylimidazo[1,2-a]pyrazyn-3-one]
- increase of KSOD with imidazolopyrazine concentration (effect) [1]: observed
- MCC [2]: 100 µM
- EC100 (Human fibroblasts; Fibroblast, t-BHP-treated human fibroblasts, read-out: concentration at which protection is total): 1 µM
- minimal effective concentration (Human fibroblasts; Fibroblast, t-BHP-treated human fibroblasts, read-out: concentration from which the improvement of survival is significant): 0.02 µM
- survival of the t-BHP-treated cells (Human fibroblasts; t-BHP 10^-4 M, without serum (FIG. 8)): most advantageous results
- antioxidant activity compared with vitamin E (Human fibroblasts; [6]): greater than

SMILES: O=c1c(-c2ccccc2)nc2c(Cc3ccccc3)[nH]c(-c3ccc(O)cc3)cn1-2 [CLZN-10, 3,7-dihydro-2-phenyl-6-(p-hydroxyphenyl)-8-benzylimidazo[1,2-a]pyrazyn-3-one]
- increase of KSOD with imidazolopyrazine concentration (effect) [1]: observed

SMILES: O=c1c(Cc2ccccc2)nc2c(Cc3ccccc3)[nH]c(-c3ccc(O)cc3)cn1-2 [CLZN-11, 3,7-dihydro-2-benzyl-6-(p-hydroxyphenyl)-8-benzylimidazo[1,2-a]pyrazyn-3-one]
- toxicity for human fibroblasts (MRC5) (human fibroblasts (MRC5)): significant toxicity

SMILES: Oc1ccc(Cc2nc3c(Cc4ccccc4)nc(-c4ccc(O)cc4)cn3c2O)cc1 [coelenterazine, 3,7-dihydro-2-(p-hydroxybenzyl)-6-(p-hydroxyphenyl)-8-benzylimidazo[1,2-a]pyrazyn-3-one]
- rate constant KSOD ([1]; coelenterazine concentration 50 nM): 2×10^9
- rate constant KSOD ([1]; coelenterazine concentration 400 nM): 2.5×10^10
- increase in rate constant KSOD ([1]; coelenterazine concentration multiplied by 8 (from 50 to 400 nM)): 12.5 fold
- change of slope of the relationship linking IO/I to the superoxide dismutase concentration [1]: a rise in the slope
- survival (In vivo toxicity in mice): 100%
- toxicity for mice (mice [3]): not toxic
- Weight (in grams) after 0 day (mice [4]): 16.19 grams
- Weight (in grams) after 6 days (mice [4]): 22.82 grams
- Weight (in grams) after 30 days (mice [4]): 31.57 grams
- survival (mice [4]): 5/5
- growth retardation (mice [4]; ip): no growth retardation is observed
- stability in an aqueous medium [5]: only a few hours
- antioxidant activity compared with vitamin E (Human fibroblasts; [6]): equivalent to

SMILES: Nc1cccc2c(=O)[nH][nH]c(=O)c12 [luminol, reference compound]
- change of slope of the relationship linking IO/I to the superoxide dismutase concentration [1]: a regular decrease in the slope

SMILES: Cc1c(C)c2c(c(C)c1O)CC[C@@](C)(CCC[C@H](C)CCC[C@H](C)CCCC(C)C)O2 [vitamin E, α-tocopherol, reference compound]
- protection (Human fibroblasts; serum (10%) in the culture medium, highest concentrations): 60%
